Data from US11236046B2, “Substituted heterocyclic sulfonamide compounds useful as TRPA1 modulators” (Genentech, Inc., priority 2013, dated 2022).

What was measured:
[1] = in vivo rat pharmacokinetic (PK) studies, plasma clearance; conditions: for clearance: plasma, read-out: Rat PK Clp
human TRPA1 = human TRPA1 (Homo sapiens (Human), UniProt O75762); test: IC50 determination on the human TRPA1 channel, calcium fluorescence (Hamamatsu FDSS plate reader); format: cell-based; conditions: CHO cells expressing human TRPA1; block of cinnamaldehyde induced calcium influx; 20 minutes compound incubation; Hill coefficient fixed to 1.5; read-out: hTRPA1 AUC IC50
Method: IC50s (effective concentration) of compounds on the human TRPA1 channel were determined using a Hamamatsu FDSS fluorescence plate reader. CHO cells expressing human TRPA1 were plated into 384-well plates, incubated overnight at 37 C, and loaded with BD calcium indicator dye for 1 hr at 37° C. followed by 15 minutes. at room temperature. The assay buffer was Hank's Balanced Salt Solution (HBSS) containing 20 mM HEPES (pH readjusted to 7.4) along with 0.02% BSA.
Following dye load and plate cool down, compounds were added to the cells using the FDSS while monitoring fluorescence to determine whether any of the test compounds have TRPA1 agonist activity. Plates were then incubated with compound for 20 minutes at room temperature prior to adding agonist. Following this incubation, […] cinnamaldehyde was added to all wells of the plate and block of this cinnamaldehyde induced calcium influx was measured.
Fixing the Hill coefficient will generally reduce variability of the IC50 determination. The IC50s were examined by eye to make sure the MIN and MAX points were set correctly prior to validation of the results.

Chain of human TRPA1 (O75762 whole entry): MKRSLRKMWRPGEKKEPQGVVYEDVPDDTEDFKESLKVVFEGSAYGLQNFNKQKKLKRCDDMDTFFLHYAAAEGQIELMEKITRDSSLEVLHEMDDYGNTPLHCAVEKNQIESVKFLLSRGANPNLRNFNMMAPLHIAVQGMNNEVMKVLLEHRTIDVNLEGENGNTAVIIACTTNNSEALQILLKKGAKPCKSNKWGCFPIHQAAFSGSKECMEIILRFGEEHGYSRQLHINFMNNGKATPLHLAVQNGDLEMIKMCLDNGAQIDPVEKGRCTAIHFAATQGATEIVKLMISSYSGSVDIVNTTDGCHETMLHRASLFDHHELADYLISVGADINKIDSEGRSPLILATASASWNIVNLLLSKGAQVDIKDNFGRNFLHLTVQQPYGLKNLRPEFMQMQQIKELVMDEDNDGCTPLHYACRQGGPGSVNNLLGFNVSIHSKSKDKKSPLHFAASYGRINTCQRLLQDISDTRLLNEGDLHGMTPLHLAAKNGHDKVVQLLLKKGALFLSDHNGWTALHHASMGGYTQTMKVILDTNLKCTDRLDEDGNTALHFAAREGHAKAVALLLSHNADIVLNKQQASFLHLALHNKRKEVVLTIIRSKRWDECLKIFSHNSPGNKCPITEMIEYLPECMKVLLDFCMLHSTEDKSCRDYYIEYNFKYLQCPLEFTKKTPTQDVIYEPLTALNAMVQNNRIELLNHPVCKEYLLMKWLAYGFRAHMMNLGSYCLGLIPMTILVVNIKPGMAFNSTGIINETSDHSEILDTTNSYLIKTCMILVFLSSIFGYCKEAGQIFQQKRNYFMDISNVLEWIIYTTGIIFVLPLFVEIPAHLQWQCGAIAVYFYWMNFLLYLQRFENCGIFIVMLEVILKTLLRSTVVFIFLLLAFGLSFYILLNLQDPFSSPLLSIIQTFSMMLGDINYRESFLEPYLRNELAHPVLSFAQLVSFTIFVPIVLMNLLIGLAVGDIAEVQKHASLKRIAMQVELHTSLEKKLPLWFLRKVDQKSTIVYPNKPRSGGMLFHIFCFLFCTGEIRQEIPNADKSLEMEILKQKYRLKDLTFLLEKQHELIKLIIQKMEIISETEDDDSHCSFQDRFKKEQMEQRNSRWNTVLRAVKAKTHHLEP

IC50 (human TRPA1) [nM]	Structure (SMILES)	further results
	COc1nn(-c2ccc(C(F)(F)F)nc2)cc1CNC(=O)[C@@H]1C[C@@H](F)CN1S(=O)(=O)c1ccc(F)cc1 [(2S,4R)-4-fluoro-1-(4-fluorophenyl)sulfonyl-N-[[3-methoxy-1-[6-(trifluoromethyl)-3-pyridyl]pyrazol-4-yl]methyl]pyrrolidine-2-carboxamide]	clearance [1]: 13 mL/min/kg
	O=C(NCc1cc(F)cc(-c2cnc(C(F)F)cn2)c1)[C@@H]1C[C@@H](F)CN1S(=O)(=O)c1ccc(F)cc1 [(2S,4R)-N-[[3-[5-(difluoromethyl)pyrazin-2-yl]-5-fluoro-phenyl]methyl] 4-fluoro-1-(4-fluorophenyl)sulfonyl-pyrrolidine-2-carboxamide]	clearance [1]: 9.9 mL/min/kg
	O=C(NCc1cc(-c2ccc(C(F)(F)F)nc2)ncn1)[C@@H]1C[C@@H](F)CN1S(=O)(=O)c1ccc(F)cc1 [(2S,4R)-4-fluoro-1-(4-fluorophenyl)sulfonyl-N-[[6-[6-(trifluoromethyl)-3-pyridyl]pyrimidin-4-yl]methyl]pyrrolidine-2-carboxamide]	Rat PK Clp [1]: 15 mL/min/kg; stability in in vivo rat PK studies (clearance from the blood), in words ([1]; compared with related compounds): highest stability (slowest clearance)
	C[C@@]1(C(=O)NCc2cc(-c3ccc(C(F)(F)F)nc3)ncn2)C[C@@H](F)CN1S(=O)(=O)c1ccc(F)cc1 [(2S,4R)-4-fluoro-1-(4-fluorophenyl)sulfonyl-2-methyl-N-[[6-[6-(trifluoromethyl)-3-pyridyl]pyrimidin-4-yl]methyl]pyrrolidine-2-carboxamide]	clearance [1]: 15 mL/min/kg
	COc1nc(CNC(=O)[C@@H]2C[C@@H](F)CN2S(=O)(=O)c2ccc(F)cc2)cc(-c2ccc(C(F)(F)F)nc2)n1 [(2S,4R)-4-fluoro-1-(4-fluorophenyl)sulfonyl-N-[[2-methoxy-6-[6-(trifluoromethyl)-3-pyridyl]pyrimidin-4-yl]methyl]pyrrolidine-2-carboxamide]	clearance [1]: 16.5 mL/min/kg
	C[C@@]1(F)C[C@@H](C(=O)NCc2cc(-c3ccc(C(F)(F)F)nc3)ncn2)N(S(=O)(=O)c2ccc(F)cc2)C1 [(2S,4R)-4-fluoro-1-(4-fluorophenyl)sulfonyl-4-methyl-N-[[6-[6-(trifluoromethyl)-3-pyridyl]pyrimidin-4-yl]methyl]pyrrolidine-2-carboxamide]	clearance [1]: 11.3 mL/min/kg
	O=C(NCc1cc(-c2ccc(C(F)(F)F)nc2)nc(-c2ccc(C(F)(F)F)nc2)c1)[C@@H]1C[C@@H](F)CN1S(=O)(=O)c1ccc(F)cc1 [(2S,4R)-N-[[2,6-bis[6-(trifluoromethyl)-3-pyridyl]-4-pyridyl]methyl]-4-fluoro-1-(4-fluorophenyl)sulfonyl-pyrrolidine-2-carboxamide]	clearance [1]: 9.1 mL/min/kg
867	N#C[C@@]1(C(=O)NCc2cc(-c3ccc(C(F)(F)F)nc3)ncn2)CCCN1S(=O)(=O)c1ccc(F)cc1 [Example 32, (R)-2-cyano-1-(4-fluorophenylsulfonyl)-N-((6-(6-(trifluoromethyl)pyridin-3-yl)pyrimidin-4-yl)methyl)pyrrolidine-2-carboxamide]	
107	O=C(NCc1cc(-c2ccc(C3CC3)cc2)ncn1)[C@@H]1C[C@@H](F)CN1S(=O)(=O)c1ccc(F)cc1 [Example 10, (2S,4R)—N-((6-(4-cyclopropylphenyl)pyrimidin-4-yl)methyl)-4-fluoro-1-(4-fluorophenylsulfonyl)pyrrolidine-2-carboxamide]	
23	O=C(NCc1cc(-c2ccc(C(F)(F)F)cc2)ncn1)[C@@H]1C[C@@H](F)CN1S(=O)(=O)c1cccc(F)c1 [Example 6, (2S,4R)-4-fluoro-1-(3-fluorophenylsulfonyl)-N-((6-(4-(trifluoromethyl)phenyl)pyrimidin-4-yl)methyl)pyrrolidine-2-carboxamide]	
40	O=C(NCc1cc(-c2ccc(C(F)(F)F)nc2)ncn1)[C@@H]1[C@H]2CC[C@H](C2)N1S(=O)(=O)c1ccc(F)cc1 [Example 34, (1R,3S,4S)-2-(4-fluorophenylsulfonyl)-N-((6-(6-(trifluoromethyl)pyridin-3-yl)pyrimidin-4-yl)methyl)-2-azabicyclo[2.2.1]heptane-3-carboxamide]	
3000	O=C(NCc1cc(-c2ccc(C(F)(F)F)nc2)ncn1)[C@@H]1C[C@@H](F)CN1S(=O)(=O)c1cncc(F)c1 [Example 27, (2S,4R)-4-fluoro-1-(5-fluoropyridin-3-ylsulfonyl)-N-((6-(6-(trifluoromethyl)pyridin-3-yl)pyrimidin-4-yl)methyl)pyrrolidine-2-carboxamide]	
17	O=C(NCc1cc(-c2ccc(C(F)(F)F)nc2)ncc1F)[C@@H]1C[C@@H](F)CN1S(=O)(=O)c1ccc(F)cc1 [Example 8, (2S,4R)-4-fluoro-N-((5-fluoro-6′-(trifluoromethyl)-2,3′-bipyridin-4-yl)methyl)-1-(4-fluorophenylsulfonyl)pyrrolidine-2-carboxamide]	
8	O=C(NCc1cn(-c2ccc(C(F)(F)F)cc2)nc1Cl)[C@@H]1C[C@@H](F)CN1S(=O)(=O)c1ccc(F)cc1 [Example 16, (2S,4R)—N-([3-chloro-1-[4-(trifluoromethyl)phenyl]-1H-pyrazol-4-yl]methyl)-4-fluoro-1-[(4-fluorobenzene)sulfonyl]pyrrolidine-2-carboxamide]	
51	C[C@@]1(C(=O)NCc2cc(-c3ccc(C(F)(F)F)nc3)ncn2)CCCN1S(=O)(=O)c1ccc(F)cc1 [Example 1, (S)-1-(4-fluorophenylsulfonyl)-2-methyl-N-((6-(6-(trifluoromethyl)pyridin-3-yl)pyrimidin-4-yl)methyl)pyrrolidine-2-carboxamide]	
21	O=C(NCc1cc(-c2ccc(OC(F)(F)F)cc2)ncn1)[C@@H]1C[C@@H](F)CN1S(=O)(=O)c1ccc(F)cc1 [Example 21, (2S,4R)-4-fluoro-1-(4-fluorophenylsulfonyl)-N-((6-(4-(trifluoromethoxy)phenyl)pyrimidin-4-yl)methyl)pyrrolidine-2-carboxamide]	
2700	O=C(NCc1cc(-c2ccc(C3CC3)nc2)ncn1)[C@@H]1C[C@@H](F)CN1S(=O)(=O)c1ccc(F)cc1 [Example 23, (2S,4R)—N-((6-(6-cyclopropylpyridin-3-yl)pyrimidin-4-yl)methyl)-4-fluoro-1-(4-fluorophenylsulfonyl)pyrrolidine-2-carboxamide]	
126	O=C(NCc1cc(-c2ccc(C(F)(F)F)nc2)ncn1)[C@@H]1C[C@@H](F)CN1S(=O)(=O)c1ccc(F)c(F)c1 [Example 25, (2S,4R)-1-(3,4-difluorophenylsulfonyl)-4-fluoro-N-((6-(6-(trifluoromethyl)pyridin-3-yl)pyrimidin-4-yl)methyl)pyrrolidine-2-carboxamide]	

Structure (SMILES)	IC50 (human TRPA1) [nM]	further results
O=C(NCc1cc(-c2ccc(C(F)(F)F)nc2)ncn1)[C@@H]1[C@@H](F)CCN1S(=O)(=O)c1ccc(F)cc1 [Example 35, (2R,3S)-3-fluoro-1-(4-fluorophenylsulfonyl)-N-((6-(6-(trifluoromethyl)pyridin-3-yl)pyrimidin-4-yl)methyl)pyrrolidine-2-carboxamide]	23	
O=C(NCc1cc(-c2ccc(C(F)(F)F)nc2)ncn1)[C@@H]1C[C@@H](F)CN1S(=O)(=O)c1ccc(F)cc1 [Example 3, (2S,4R)-4-fluoro-1-(4-fluorophenylsulfonyl)-N-((6-(6-(trifluoromethyl)pyridin-3-yl)pyrimidin-4-yl)methyl)pyrrolidine-2-carboxamide]	97	
C[C@@]1(C(=O)NCc2cc(-c3ccc(C(F)(F)F)nc3)ncn2)C[C@@H](F)CN1S(=O)(=O)c1ccc(F)cc1 (single isomer, unassigned) [Example 19]	16	
